Source: US20230159509A1 (Amathus Therapeutics, Inc., priority 2020, published 2023)

Target: T1, TRAP1 enzyme (Homo sapiens, UniProt Q12931)
T1 construct: 150 nM Trap1 enzyme was incubated with various concentrations of the test compound
T1 sequence (Q12931 60-704): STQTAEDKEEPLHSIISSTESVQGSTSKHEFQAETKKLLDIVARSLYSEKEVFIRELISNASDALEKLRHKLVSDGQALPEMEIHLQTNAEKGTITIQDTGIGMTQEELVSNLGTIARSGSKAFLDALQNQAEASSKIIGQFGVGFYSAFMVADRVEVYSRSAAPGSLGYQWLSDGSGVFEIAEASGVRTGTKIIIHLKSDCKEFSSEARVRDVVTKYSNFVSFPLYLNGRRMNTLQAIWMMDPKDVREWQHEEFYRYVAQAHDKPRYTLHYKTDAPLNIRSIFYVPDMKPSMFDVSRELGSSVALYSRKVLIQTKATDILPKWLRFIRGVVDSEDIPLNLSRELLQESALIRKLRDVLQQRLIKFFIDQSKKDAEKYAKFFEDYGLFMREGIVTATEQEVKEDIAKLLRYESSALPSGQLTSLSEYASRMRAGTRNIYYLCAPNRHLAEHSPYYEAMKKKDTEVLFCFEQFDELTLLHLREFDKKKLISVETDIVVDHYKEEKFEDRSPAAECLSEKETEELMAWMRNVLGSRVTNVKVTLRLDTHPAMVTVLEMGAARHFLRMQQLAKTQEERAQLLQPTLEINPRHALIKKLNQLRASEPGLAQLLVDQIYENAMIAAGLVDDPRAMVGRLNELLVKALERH
Test: ADP Glo assay of TRAP1 ATPase activity
Type: biochemical
Settings: 1 h; compound concentration 50 μM; read-out: ADP-Glo Percent Activation at 50 μM
Outline: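 ADP-Glo luminescence quantifying ADP from 150 nM TRAP1 preincubated 30 min at 37° C with compound (0.79–100 μM), then 20 μM ATP for 60 min at 37° C. Buffer: 25 mM Pipes pH 7.5, 40 mM KCl, 0.05 mM MgCl2, EGTA, BSA, detergents. ADP from ATP/ADP standard curve; Emax and EC50 from sigmoidal fit.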

Row | Compound | activation at 50 µM
1 | COc1ncc(NC(=O)c2cnn3c2CCCC3)cc1S(=O)(=O)Nc1c(C)cccc1C [compound 2673] | 181 to 352%
2 | COc1ncc(NC(=O)c2coc(N3CCOCC3)n2)cc1S(=O)(=O)Nc1c(C)cccc1C [compound 2674] | 151 to 180%
3 | CCOc1c(C(=O)Nc2cnc(OC)c(S(=O)(=O)Nc3c(C)cccc3C)c2)cnn1C [compound 2675] | 120 to 150%
4 | COc1ncc(NC(=O)c2ccc3c(c2)NC(=O)CC3)cc1S(=O)(=O)Nc1c(C)cccc1C [compound 2677] | 120 to 150%
5 | COc1ncc(NC(=O)c2cnn(C)c2C(F)(F)F)cc1S(=O)(=O)Nc1c(C)cccc1C [compound 2678] | 151 to 180%
6 | COCCn1nccc1C(=O)Nc1cnc(OC)c(S(=O)(=O)Nc2c(C)cccc2C)c1 [compound 2679] | 120 to 150%
7 | COc1ncc(NC(=O)c2ccc(CNC(C)=O)cc2)cc1S(=O)(=O)Nc1c(C)cccc1C [compound 2682] | 151 to 180%
8 | COc1ncc(NC(=O)c2csc(C(F)(F)F)c2)cc1S(=O)(=O)Nc1c(C)cccc1C [compound 2683] | 120 to 150%
9 | COc1ncc(NC(=O)c2cnn(CC(F)(F)F)c2)cc1S(=O)(=O)Nc1c(C)cccc1C [compound 2684] | 120 to 150%
10 | COc1ncc(NC(=O)c2nsnc2Cl)cc1S(=O)(=O)Nc1c(C)cccc1C [compound 2687] | 151 to 180%
11 | COc1ncc(NC(=O)c2ccc(NC(C)=O)c(C)c2)cc1S(=O)(=O)Nc1c(C)cccc1C [compound 2688] | 151 to 180%
12 | COc1ncc(NC(=O)c2cc(C(C)C)on2)cc1S(=O)(=O)Nc1c(C)cccc1C [compound 2689] | 181 to 352%
13 | CCc1cc(C(=O)Nc2cnc(OC)c(S(=O)(=O)Nc3c(C)cccc3C)c2)no1 [compound 2690] | 151 to 180%
14 | CCn1nc(C(=O)Nc2cnc(OC)c(S(=O)(=O)Nc3c(C)cccc3C)c2)cc1C [compound 2691] | 181 to 352%
15 | COc1ncc(NC(=O)c2nc(C)oc2C)cc1S(=O)(=O)Nc1c(C)cccc1C [compound 2692] | 120 to 150%
16 | COc1ncc(NC(=O)c2onc3c2CCCC3)cc1S(=O)(=O)Nc1c(C)cccc1C [compound 2693] | 120 to 150%
17 | COc1ncc(NC(=O)c2sccc2C(F)(F)F)cc1S(=O)(=O)Nc1c(C)cccc1C [compound 2694] | 181 to 352%
18 | COc1ncc(NC(=O)c2cc(C(F)(F)F)n[nH]2)cc1S(=O)(=O)Nc1c(C)cccc1C [compound 2695] | 151 to 180%
19 | COc1ncc(NC(=O)c2cccc(NC(C)=O)c2)cc1S(=O)(=O)Nc1c(C)cccc1C [compound 2696] | 181 to 352%
20 | COc1ncc(NC(=O)c2coc(C(C)C)n2)cc1S(=O)(=O)Nc1c(C)cccc1C [compound 2697] | 181 to 352%
21 | COc1ncc(NC(=O)c2ccc(NC(=O)C(C)(C)C)cc2)cc1S(=O)(=O)Nc1c(C)cccc1C [compound 2699] | 151 to 180%
22 | COc1ncc(NC(=O)c2cnn(C3CCCCC3)c2)cc1S(=O)(=O)Nc1c(C)cccc1C [compound 2700] | 181 to 352%
23 | COc1ncc(NC(=O)c2n[nH]c3c2CCC3)cc1S(=O)(=O)Nc1c(C)cccc1C [compound 2701] | 181 to 352%
24 | COc1ncc(NC(=O)c2csnc2C)cc1S(=O)(=O)Nc1c(C)cccc1C [compound 2703] | 120 to 150%
25 | COc1ncc(NC(=O)c2conc2C)cc1S(=O)(=O)Nc1c(C)cccc1C [compound 2706] | 120 to 150%
26 | COc1ncc(NC(=O)c2oncc2C)cc1S(=O)(=O)Nc1c(C)cccc1C [compound 2708] | 120 to 150%
27 | COc1ncc(NC(=O)c2ccn[nH]2)cc1S(=O)(=O)Nc1c(C)cccc1C [compound 2709] | 120 to 150%

Row | Compound | activation at 50 µM
28 | COc1ncc(NC(=O)c2nn(C)c(C)c2Cl)cc1S(=O)(=O)Nc1c(C)cccc1C [compound 2710] | 181 to 352%
29 | CCc1oncc1C(=O)Nc1cnc(OC)c(S(=O)(=O)Nc2c(C)cccc2C)c1 [compound 2711] | 120 to 150%
30 | COc1ncc(NC(=O)c2ncco2)cc1S(=O)(=O)Nc1c(C)cccc1C [compound 2712] | 120 to 150%
31 | COc1ncc(NC(=O)c2cnn(C)c2C(F)F)cc1S(=O)(=O)Nc1c(C)cccc1C [compound 2713] | 181 to 352%
32 | CCCc1nnsc1C(=O)Nc1cnc(OC)c(S(=O)(=O)Nc2c(C)cccc2C)c1 [compound 2714] | 181 to 352%
33 | COc1ncc(NC(=O)c2cccc(CN3CCN(C)CC3)c2)cc1S(=O)(=O)Nc1c(C)cccc1C [compound 2715] | 120 to 150%
34 | COc1ncc(NC(=O)c2cc(C)sn2)cc1S(=O)(=O)Nc1c(C)cccc1C [compound 2716] | 181 to 352%
35 | COc1ncc(NC(=O)c2ncoc2C)cc1S(=O)(=O)Nc1c(C)cccc1C [compound 2718] | 151 to 180%
36 | COc1ncc(NC(=O)c2cccc3c2C(=O)NC3)cc1S(=O)(=O)Nc1c(C)cccc1C [compound 2719] | 151 to 180%
37 | COc1ncc(NC(=O)c2snnc2C2CC2)cc1S(=O)(=O)Nc1c(C)cccc1C [compound 2720] | 181 to 352%
38 | COc1ncc(NC(=O)c2cn[nH]c2C)cc1S(=O)(=O)Nc1c(C)cccc1C [compound 2724] | 120 to 150%
39 | COc1ncc(NC(=O)c2noc3c2CCCC3)cc1S(=O)(=O)Nc1c(C)cccc1C [compound 2725] | 181 to 352%
40 | CCCc1onc(C)c1C(=O)Nc1cnc(OC)c(S(=O)(=O)Nc2c(C)cccc2C)c1 [compound 2726] | 181 to 352%
41 | COc1ncc(NC(=O)c2ccc3c(c2)NC(=O)C3)cc1S(=O)(=O)Nc1c(C)cccc1C [compound 2727] | 181 to 352%
42 | COc1ncc(NC(=O)c2ccnc(N3CCCCC3)c2)cc1S(=O)(=O)Nc1c(C)cccc1C [compound 2729] | 181 to 352%
43 | COc1ncc(NC(=O)c2cc(Cl)n[nH]2)cc1S(=O)(=O)Nc1c(C)cccc1C [compound 2730] | 181 to 352%
44 | COc1ncc(NC(=O)c2[nH]cnc2C)cc1S(=O)(=O)Nc1c(C)cccc1C [compound 2731] | 120 to 150%
45 | COc1ncc(NC(=O)c2cc3[nH]c(=O)[nH]c(=O)n3c2)cc1S(=O)(=O)Nc1c(C)cccc1C [compound 2732] | 151 to 180%
46 | COc1ncc(NC(=O)c2ocnc2C)cc1S(=O)(=O)Nc1c(C)cccc1C [compound 2733] | 151 to 180%
47 | COc1ncc(NC(=O)c2nnsc2C(C)C)cc1S(=O)(=O)Nc1c(C)cccc1C [compound 2734] | 181 to 352%
48 | COc1ncc(NC(=O)c2cc[nH]c3nccc2-3)cc1S(=O)(=O)Nc1c(C)cccc1C [compound 2735] | 181 to 352%
49 | COc1ncc(NC(=O)c2n[nH]c3c2CCCC3)cc1S(=O)(=O)Nc1c(C)cccc1C [compound 2736] | 181 to 352%
50 | COc1ncc(NC(=O)c2cnc(N(C)C)nc2)cc1S(=O)(=O)Nc1c(C)cccc1C [compound 2737] | 120 to 150%
51 | COc1ncc(NC(=O)c2cc(C)on2)cc1S(=O)(=O)Nc1c(C)cccc1C [compound 2738] | 151 to 180%
52 | COc1ncc(NC(=O)c2cnn3c2SCC3)cc1S(=O)(=O)Nc1c(C)cccc1C [compound 2740] | 181 to 352%
53 | COc1ncc(NC(=O)c2ccon2)cc1S(=O)(=O)Nc1c(C)cccc1C [compound 2741] | 120 to 150%
54 | COc1ncc(NC(=O)c2ccc(N3CCN(C)CC3)c(F)c2)cc1S(=O)(=O)Nc1c(C)cccc1C [compound 2742] | 181 to 352%
